Paper PMC6112376, “Comprehensive Analyses and Prioritization of Tox21 10K Chemicals Affecting Mitochondrial Function by in-Depth Mechanistic Studies” (Environmental Health Perspectives, 2018)
Where two headings read alike, the source gives them in different places.

Experiments:
HepG2 cells [1] = test: cells; conditions: Homo sapiens; for Emax: HepG2, read-out: MMP assays efficacy (%) HepG2
[2] = test system: Caenorhabditis elegans strain PE255; test: In vivo C. elegans ATP status assay; conditions: for effect on ATP content (in words): 0.5–100μM; for minimal effective concentration: Caenorhabditis elegans, read-out: LEC LUM: lowest effect concentration for luminescence, a measure of nematode ATP content
[3] = test system: isolated rat liver mitochondria; test: Oxygen consumption, Clark-type oxygen electrode; type: biochemical
[4] = test system: Caenorhabditis elegans (Bristol N2); test: C. elegans larval development and growth assay; conditions: for effect on larval growth (in words): 0.5–100μM
HepG2 cells [5] = test: ROS-Glo hydrogen peroxide (ROS) assay; type: cell-based, human
hNSC = test: MMP assay in human neural stem cells (hNSC); type: cell-based; conditions: Homo sapiens, Neural stem cell, 1 h, read-out: hNSC IC50 (MMP)
[6] = test system: p53 (p53-bla HCT-116 cells); test: p53 β-lactamase reporter gene assay; type: cell-based, human; conditions: 16 h incubation, mean±SD of three experiments
rat primary hepatocytes [7] = test: MMP assay in rat primary hepatocytes; conditions: Rattus norvegicus, Hepatocyte
HepG2 cells [8] = test: Intracellular ATP content (cell viability) assay; type: cell-based, human; conditions: for IC50: Homo sapiens, HepG2, 40 h
[9] = test system: Nrf2/ARE (ARE-bla HepG2 cells); test: ARE β-lactamase reporter gene assay; type: cell-based, human; conditions: Homo sapiens, HepG2; 16 h incubation; mean±SD of three experiments; read-out: ARE (HepG2) EC50
[10] = test system: HeLa cells expressing YFP-Parkin; test: Parkin translocation assay; type: cell-based, human
HepG2 cells [11] = conditions: cited from earlier work; for IC50: read-out: MMP assays IC50 (µM), qHTS-HepG2
rat primary hepatocytes [12] = test system: rat primary hepatocytes
[13] = HepG2, 1 h, read-out: HepG2 IC50 Galactose (MMP)
[14] = HepG2, 1 h, read-out: HepG2 IC50 Glucose (MMP)
[15] = 1 h, read-out: Rat hepatocytes IC50 (MMP)

## O=C(Nc1ccccc1)Nc1cnns1 [Thidiazuron]
HepG2 cells [1]; [13]
  IC50: 14.6 µM
HepG2 cells [1]; [14]
  IC50: 12 µM
HepG2 cells [1]; HepG2, read-out: MMP assays IC50 (µM) HepG2
  IC50: 6.31 µM
HepG2 cells [1]
  Emax: 104%
[2]; 0.5 µM
  LUM: mean difference in luminescence (ATP content) relative to plate controls: 0.0432
[2]; 1 µM
  LUM: mean difference in luminescence (ATP content) relative to plate controls: 0.1041
[2]; 5 µM
  LUM: mean difference in luminescence (ATP content) relative to plate controls: 0.03776
[2]; 10 µM
  LUM: mean difference in luminescence (ATP content) relative to plate controls: 0.1711
[2]; 25 µM
  LUM: mean difference in luminescence (ATP content) relative to plate controls: 0.3608
[2]; 50 µM
  LUM: mean difference in luminescence (ATP content) relative to plate controls: 0.588
[2]; 75 µM
  LUM: mean difference in luminescence (ATP content) relative to plate controls: 0.6504
[2]; 100 µM
  LUM: mean difference in luminescence (ATP content) relative to plate controls: 0.4761
[2]
  effect on ATP content (in words): statistically significant decreases in ATP content
  minimal effective concentration: 50 µM
[3]
  Potential Mechanism: Uncoupler
[3]; 0.16 µM
  I-ADP, % of control (O2 consumption rate): 93 (51.1) % of control
  I-sub, % of control (O2 consumption rate): 104 (13.6) % of control
  II-ADP, % of control (O2 consumption rate): 91 (80.1) % of control
  II-sub, % of control (O2 consumption rate): 100 (24.5) % of control
[3]; 0.8 µM
  I-ADP, % of control (O2 consumption rate): 74 (40.3) % of control
  I-sub, % of control (O2 consumption rate): 95 (12.4) % of control
  II-ADP, % of control (O2 consumption rate): 93 (82.2) % of control
  II-sub, % of control (O2 consumption rate): 106 (26.1) % of control
[3]; 4 µM
  I-ADP, % of control (O2 consumption rate): 87 (47.5) % of control
  I-sub, % of control (O2 consumption rate): 134 (17.5) % of control
  II-ADP, % of control (O2 consumption rate): 95 (83.6) % of control
  II-sub, % of control (O2 consumption rate): 119 (29.3) % of control
[3]; 20 µM
  I-ADP, % of control (O2 consumption rate): 99 (54.4) % of control
  I-sub, % of control (O2 consumption rate): 311 (40.8) % of control
  II-ADP, % of control (O2 consumption rate): 104 (92.1) % of control
  II-sub, % of control (O2 consumption rate): 269 (66.2) % of control
[4]; 0.5 µM
  EXT: mean difference in nematode size relative to plate controls: 0.1764
[4]; 1 µM
  EXT: mean difference in nematode size relative to plate controls: 0.07124
[4]; 5 µM
  EXT: mean difference in nematode size relative to plate controls: 0.08978
[4]; 10 µM
  EXT: mean difference in nematode size relative to plate controls: 0.07446
[4]; 25 µM
  EXT: mean difference in nematode size relative to plate controls: 0.09242
[4]; 50 µM
  EXT: mean difference in nematode size relative to plate controls: 0.2069
[4]; 75 µM
  EXT: mean difference in nematode size relative to plate controls: 0.07987
[4]
  effect on larval growth (in words): did not affect growth
HepG2 cells [5]
  ROS (HepG2) EC50: Inactive
hNSC
  IC50: 8.39 µM
[6]
  p53 (HCT-116) EC50: Inactive
Rat primary hepatocytes [7]; [15]
  IC50: 14.7 µM
Rat primary hepatocytes [7]; read-out: MMP assays IC50 (µM) Rat Hepatocytes
  IC50: 4.56 ± 2.78 µM
HepG2 cells [8]
  ATP (HepG2, galactose) IC50: Inactive
  ATP (HepG2, glucose) IC50: Inactive
[9]
  EC50: 27.3 ± 9.74 µM
[10]
  Parkin recruitment: Inactive
HepG2 cells [11]
  MMP assays efficacy (%) qHTS-HepG2: -126±9%
  IC50: 3.43 ± 0.73 µM
Rat primary hepatocytes [12]
  MMP assays efficacy (%) Rat Hepatocytes: -136±46%
  Rat hepatocytes (efficacy) (MMP): 14.7±2.52 ( −98.5±15.2 ) %

## O=C(Nc1ccc(Cl)cc1)Nc1ccc(Cl)c(Cl)c1 [Triclocarban]
HepG2 cells [1]; [13]
  IC50: 1.36 µM
HepG2 cells [1]; [14]
  IC50: 0.93 µM
HepG2 cells [1]; HepG2, read-out: IC50 in HepG2 cells (MMP, tier-one retest)
  IC50: 0.17 µM
HepG2 cells [1]
  Emax: 102%
[2]; 0.05 µM
  LUM: mean difference in luminescence (ATP content) relative to plate controls: -0.00831
[2]; 0.1 µM
  LUM: mean difference in luminescence (ATP content) relative to plate controls: 0.1123
[2]; 0.5 µM
  LUM: mean difference in luminescence (ATP content) relative to plate controls: 0.4779
[2]; 1 µM
  LUM: mean difference in luminescence (ATP content) relative to plate controls: 2.3316
[2]; 5 µM
  LUM: mean difference in luminescence (ATP content) relative to plate controls: 2.049
[2]; 10 µM
  LUM: mean difference in luminescence (ATP content) relative to plate controls: 3.074
[2]; 25 µM
  LUM: mean difference in luminescence (ATP content) relative to plate controls: 3.397
[2]; 50 µM
  LUM: mean difference in luminescence (ATP content) relative to plate controls: 3.34
[2]; 75 µM
  LUM: mean difference in luminescence (ATP content) relative to plate controls: 3.2375
[2]; 100 µM
  LUM: mean difference in luminescence (ATP content) relative to plate controls: 2.494
[2]
  effect on ATP content (in words): inhibited
  minimal effective concentration: 0.5 µM
[3]
  Potential Mechanism: Uncoupler
  effect on mitochondrial respiration (in words): effects similar to those of FCCP
[3]; 0.032 µM
  I-ADP, % of control (O2 consumption rate): 107 (58.8) % of control
  I-sub, % of control (O2 consumption rate): 115 (15.1) % of control
  II-ADP, % of control (O2 consumption rate): 93 (82.1) % of control
  II-sub, % of control (O2 consumption rate): 93 (22.8) % of control
[3]; 0.16 µM
  I-ADP, % of control (O2 consumption rate): 96 (52.6) % of control
  I-sub, % of control (O2 consumption rate): 118 (15.5) % of control
  II-ADP, % of control (O2 consumption rate): 104 (91.7) % of control
  II-sub, % of control (O2 consumption rate): 114 (28.1) % of control
[3]; 0.8 µM
  I-ADP, % of control (O2 consumption rate): 103 (56.5) % of control
  I-sub, % of control (O2 consumption rate): 153 (20.1) % of control
  II-ADP, % of control (O2 consumption rate): 99 (87.1) % of control
  II-sub, % of control (O2 consumption rate): 128 (31.4) % of control
[3]; 20 µM
  I-ADP, % of control (O2 consumption rate): 143 (78.2) % of control
  I-sub, % of control (O2 consumption rate): 631 (82.6) % of control
  II-ADP, % of control (O2 consumption rate): 95 (84.1) % of control
  II-sub, % of control (O2 consumption rate): 290 (71.4) % of control
[4]; 0.05 µM
  EXT: mean difference in nematode size relative to plate controls: 0.05115
[4]; 0.1 µM
  EXT: mean difference in nematode size relative to plate controls: -0.1287
[4]; 0.5 µM
  EXT: mean difference in nematode size relative to plate controls: 0.279
  larval growth effect at 0.5μM: severe larval growth arrest
[4]; 1 µM
  EXT: mean difference in nematode size relative to plate controls: 1.127
[4]; 5 µM
  EXT: mean difference in nematode size relative to plate controls: 1.268
[4]; 10 µM
  EXT: mean difference in nematode size relative to plate controls: 1.264
[4]; 25 µM
  EXT: mean difference in nematode size relative to plate controls: 1.322
[4]; 50 µM
  EXT: mean difference in nematode size relative to plate controls: 1.038
[4]; 75 µM
  EXT: mean difference in nematode size relative to plate controls: 0.8579
[4]; 100 µM
  EXT: mean difference in nematode size relative to plate controls: 0.6913
[4]
  effect on larval growth (in words): inhibited
[4]; Caenorhabditis elegans, read-out: LEC EXT: lowest effect concentration for extinction, a measure of nematode size
  minimal effective concentration: 0.5 µM
HepG2 cells [5]; Homo sapiens, HepG2, 2 h, read-out: ROS (HepG2) EC50
  EC50: 31.8 µM
hNSC
  IC50: 0.43 µM
[6]; Homo sapiens
  EC50: 5.33 ± 2.02 µM
Rat primary hepatocytes [7]; 1 h, read-out: IC50 in rat primary hepatocytes (MMP, tier-one retest)
  IC50: 0.17 µM
Rat primary hepatocytes [7]; [15]
  IC50: 1.77 µM
HepG2 cells [8]; read-out: ATP (HepG2, galactose) IC50
  IC50: 15.8 µM
HepG2 cells [8]; read-out: ATP (HepG2, glucose) IC50
  IC50: 19.1 µM
[9]
  EC50: 6.68 µM
[10]
  Parkin recruitment: Active
HepG2 cells [11]
  MMP assays efficacy (%) qHTS-HepG2: -119±8%
  IC50: 0.14 ± 0.05 µM
Rat primary hepatocytes [12]
  MMP assays efficacy (%) Rat Hepatocytes: -113±53%
  Rat hepatocytes (efficacy) (MMP): 1.77±0.60 ( −73.7±3.11 ) %
